What follows are molecules tested against T1, Beta-glucuronidase (Bos taurus, UniProt A3KMY8) (assay: Beta-glucuronidase Inhibition Assay).
T1 sequence (A3KMY8 whole entry): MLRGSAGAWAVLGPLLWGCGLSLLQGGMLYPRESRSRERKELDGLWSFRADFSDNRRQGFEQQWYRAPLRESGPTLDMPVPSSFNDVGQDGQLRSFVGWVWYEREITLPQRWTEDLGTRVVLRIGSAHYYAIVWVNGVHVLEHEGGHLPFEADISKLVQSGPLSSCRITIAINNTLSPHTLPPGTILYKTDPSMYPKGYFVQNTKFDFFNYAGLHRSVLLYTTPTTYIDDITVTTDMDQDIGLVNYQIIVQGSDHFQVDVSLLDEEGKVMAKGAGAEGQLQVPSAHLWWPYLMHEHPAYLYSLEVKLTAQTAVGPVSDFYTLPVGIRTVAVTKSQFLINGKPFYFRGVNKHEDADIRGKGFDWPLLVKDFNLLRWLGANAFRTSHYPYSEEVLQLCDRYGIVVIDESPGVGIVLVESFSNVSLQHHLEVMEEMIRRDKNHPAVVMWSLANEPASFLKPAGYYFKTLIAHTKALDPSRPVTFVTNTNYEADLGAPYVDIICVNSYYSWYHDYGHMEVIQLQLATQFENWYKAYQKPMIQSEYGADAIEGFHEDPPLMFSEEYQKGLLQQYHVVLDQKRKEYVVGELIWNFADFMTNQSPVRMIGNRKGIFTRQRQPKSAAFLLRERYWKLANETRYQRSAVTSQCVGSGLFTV
Protocol: The total reaction volume was 250 µL. […] The reaction mixture contained 185 µL of 0.1 M acetate buffer, 5 µL of test compound solution, 10 µL of enzyme solution was incubated at 37 °C for 30 min. […] All assays were run in triplicate.

SMILES | IC50
Clc1cc(Cl)c2nc(-c3ccccn3)[nH]c2c1 [4,6-dichloro-2-(pyridin-2-yl)-1H-benzo[d]imidazole (19)] | 86.1 µM
COc1ccc(-c2nc3c(Cl)cc(Cl)cc3[nH]2)cc1O [5-(4,6-dichloro-1H-benzo[d]imidazol-2-yl)-2-methoxyphenol (9)] | 86.3 µM
Clc1ccc(-c2nc3c(Cl)cc(Cl)cc3[nH]2)cc1 [4,6-Dichloro-2-(4-chlorophenyl)-1H-benzo[d]imidazole (12)] | 36.1 µM
Oc1ccccc1-c1nc2cc(Cl)cc(Cl)c2[nH]1 [2-(4,6-dichloro-1H-benzo[d]imidazol-2-yl)phenol (1)] | 4.48 µM
Oc1cccc(-c2nc3c(Cl)cc(Cl)cc3[nH]2)c1 [3-(4,6-dichloro-1H-benzo[d]imidazol-2-yl)phenol (2)] | 28.4 µM
Oc1ccc(-c2nc3c(Cl)cc(Cl)cc3[nH]2)cc1O [4-(4,6-dichloro-1H-benzo[d]imidazol-2-yl)benzene-1,2-diol (5)] | 46.1 µM
Oc1ccc(-c2nc3c(Cl)cc(Cl)cc3[nH]2)c(O)c1 [4-(4,6-dichloro-1H-benzo[d]imidazol-2-yl)benzene-1,3-diol (6)] | 14.2 µM
Oc1cccc(-c2nc3c(Cl)cc(Cl)cc3[nH]2)c1O [3-(4,6-dichloro-1H-benzo[d]imidazol-2-yl)benzene-1,2-diol (4)] | 60.5 µM
Oc1ccc(O)c(-c2nc3c(Cl)cc(Cl)cc3[nH]2)c1 [2-(4,6-dichloro-1H-benzo[d]imidazol-2-yl)benzene-1,4-diol (7)] | 11.5 µM
COc1ccc(O)c(-c2nc3c(Cl)cc(Cl)cc3[nH]2)c1 [2-(4,6-dichloro-1H-benzo[d]imidazol-2-yl)-4-methoxyphenol (8)] | 15.5 µM
Oc1ccc(-c2nc3c(Cl)cc(Cl)cc3[nH]2)cc1 [4-(4,6-dichloro-1H-benzo[d]imidazol-2-yl)phenol (3)] | 14.2 µM

Reference: BindingDB's records for doi:10.1016/j.bioorg.2015.05.010 (Universiti Teknologi Mara (Uitm), 2015)
